What was measured:
[1] = system: MEF 3.5 −/−; test: Cytotoxicity of GrB-Fc-IT4 constructs; type: cell-based
Excerpt: (§1) As an initial test of this arrangement a construct was produced comprising GrB-Fc-IT4 (scFv). Specifically, the IT4 scFv targets the product of the tumor necrosis factor receptor superfamily, member 12A (TNFRSF12A) gene and was previously described in Zhou et al., 2011, which is incorporated herein by reference. The sequence of the fusion protein produced by the construct is provided as SEQ ID NO: 45. The constructs was expressed and purified as detailed supra and tested for activity against a panel of cells lines (using GrB alone a control).

[2] = system: MDA-MD-231-Luc; test: Cytotoxicity of GrB-Fc-IT4 constructs; type: cell-based
Excerpt: as §1

[3] = system: Capan-2; test: Cytotoxicity of GrB-Fc-IT4 constructs; type: cell-based
Excerpt: as §1

[4] = system: H358; test: Cytotoxicity of GrB-Fc-IT4 constructs; type: cell-based
Excerpt: as §1

[5] = system: MDA-MB-231; test: Cytotoxicity of GrB-Fc-IT4 constructs; type: cell-based
Excerpt: as §1

[6] = system: MDA-MB-435; test: Cytotoxicity of GrB-Fc-IT4 constructs; type: cell-based
Excerpt: as §1

[7] = system: HCC827; test: Cytotoxicity of GrB-Fc-IT4 constructs; type: cell-based
Excerpt: as §1

[8] = system: WM35P2N1; test: Cytotoxicity of GrB-Fc-IT4 constructs; type: cell-based
Excerpt: as §1

[9] = system: Capan-1; test: Cytotoxicity of GrB-Fc-IT4 constructs; type: cell-based
Excerpt: as §1

[10] = system: H520; test: Cytotoxicity of GrB-Fc-IT4 constructs; type: cell-based
Excerpt: as §1

[11] = system: SK-MEF-28; test: Cytotoxicity of GrB-Fc-IT4 constructs; type: cell-based
Excerpt: as §1

[12] = system: H3255; test: Cytotoxicity of GrB-Fc-IT4 constructs; type: cell-based
Excerpt: as §1

[13] = system: L3.6p1; test: Cytotoxicity of GrB-Fc-IT4 constructs; type: cell-based
Excerpt: as §1

[14] = system: HCC2279; test: Cytotoxicity of GrB-Fc-IT4 constructs; type: cell-based
Excerpt: as §1

[15] = system: A549; test: Cytotoxicity of GrB-Fc-IT4 constructs; type: cell-based
Excerpt: as §1

[16] = system: MCF-7; test: Cytotoxicity of GrB-Fc-IT4 constructs; type: cell-based
Excerpt: as §1

[17] = system: H1437; test: Cytotoxicity of GrB-Fc-IT4 constructs; type: cell-based
Excerpt: as §1

[18] = system: SB2; test: Cytotoxicity of GrB-Fc-IT4 constructs; type: cell-based
Excerpt: as §1

[19] = system: AsPc-1; test: Cytotoxicity of GrB-Fc-IT4 constructs; type: cell-based
Excerpt: as §1

[20] = system: WM35; test: Cytotoxicity of GrB-Fc-IT4 constructs; type: cell-based
Excerpt: as §1

[21] = system: H1975; test: Cytotoxicity of GrB-Fc-IT4 constructs; type: cell-based
Excerpt: as §1

[22] = system: HT-29; test: Cytotoxicity of GrB-Fc-IT4 constructs; type: cell-based
Excerpt: as §1

[23] = system: H2073; test: Cytotoxicity of GrB-Fc-IT4 constructs; type: cell-based
Excerpt: as §1

[24] = system: A375; test: Cytotoxicity of GrB-Fc-IT4 constructs; type: cell-based
Excerpt: as §1

[25] = system: Me180; test: In vitro cytotoxic effects of GrB-based fusions, crystal violet; type: cell-based, human; conditions: Table 11, Me180, 72 h exposure
[26] = system: AAB-527; test: Cytotoxic effects of GrB versus GrB-TWEAK; type: cell-based
Excerpt: (§2) Further GrB expression constructs were developed and tested. (GrB) encoded GrB, plasmid designation pSECTag-GrB. […] These constructs were expressed and tested.

[27] = system: HEY; test: Cytotoxic effects of GrB versus GrB-TWEAK; type: cell-based
Excerpt: as §2

[28] = system: Jurkat; test: Cytotoxic effects of GrB versus GrB-TWEAK; type: cell-based
Excerpt: as §2

[29] = system: BxPC-3; test: Cytotoxic effects of GrB versus GrB-TWEAK; type: cell-based
Excerpt: as §2

[30] = system: ES-2; test: Cytotoxic effects of GrB versus GrB-TWEAK; type: cell-based
Excerpt: as §2

[31] = system: SK-Mel-1; test: Cytotoxic effects of GrB versus GrB-TWEAK; type: cell-based
Excerpt: as §2

[32] = system: A172; test: Cytotoxic effects of GrB versus GrB-TWEAK; type: cell-based
Excerpt: as §2

[33] = system: OC-316; test: Cytotoxic effects of GrB versus GrB-TWEAK; type: cell-based
Excerpt: as §2

[34] = system: T-24; test: Cytotoxic effects of GrB versus GrB-TWEAK; type: cell-based
Excerpt: as §2

[35] = system: A2780; test: Cytotoxic effects of GrB versus GrB-TWEAK; type: cell-based
Excerpt: as §2

[36] = system: MDA-MB231; test: Cytotoxic effects of GrB versus GrB-TWEAK; type: cell-based
Excerpt: as §2

[37] = system: SK-Mel-28; test: Cytotoxic effects of GrB versus GrB-TWEAK; type: cell-based
Excerpt: as §2

[38] = system: MDA-MB435; test: Cytotoxic effects of GrB versus GrB-TWEAK; type: cell-based
Excerpt: as §2

[39] = system: U87MG; test: Cytotoxic effects of GrB versus GrB-TWEAK; type: cell-based
Excerpt: as §2

[40] = system: MCF-7; test: Cytotoxic effects of GrB versus GrB-TWEAK; type: cell-based
Excerpt: as §2

[41] = system: SB2; test: Cytotoxic effects of GrB versus GrB-TWEAK; type: cell-based
Excerpt: as §2

[42] = system: HT-1080; test: Cytotoxic effects of GrB versus GrB-TWEAK; type: cell-based
Excerpt: as §2

[43] = system: MDA-MB435/MDR1; test: Cytotoxic effects of GrB versus GrB-TWEAK; type: cell-based
Excerpt: as §2

[44] = system: WM35; test: Cytotoxic effects of GrB versus GrB-TWEAK; type: cell-based
Excerpt: as §2

[45] = system: SK-Mel-5; test: Cytotoxic effects of GrB versus GrB-TWEAK; type: cell-based
Excerpt: as §2

[46] = system: HeyA8-MDR; test: Cytotoxic effects of GrB versus GrB-TWEAK; type: cell-based
Excerpt: as §2

[47] = system: SKBR3; test: Cytotoxic effects of GrB versus GrB-TWEAK; type: cell-based
Excerpt: as §2

[48] = system: HT-29; test: Cytotoxic effects of GrB versus GrB-TWEAK; type: cell-based
Excerpt: as §2

[49] = system: HeyA8; test: Cytotoxic effects of GrB versus GrB-TWEAK; type: cell-based
Excerpt: as §2

[50] = system: A375-M; test: Cytotoxic effects of GrB versus GrB-TWEAK; type: cell-based
Excerpt: as §2

[51] = system: AAB-527; test: Cytotoxic effects of GrB/ZME fusion constructs; type: cell-based; conditions: AAB-527, specifically targeted by ZME
Excerpt: (§3) GrB-ZME(VL-VH) fusion proteins were constructed as indicated above using different linkers between the GrB and ZME sequences. The construct SL used the G4S linker; LL was four repeats of the HL (EAAAK (SEQ ID NO: 14)) linker and X was a G4S+218 linker.
(§4) Two glycosylation sites were identified within the GrB molecule (d1 and d2) and modified the GrB/scFvMEL fusion construct as detailed above and as shown in FIG. 4 (d1 indicates N51S; d2 indicates N84A). Each glycosylation site was modified and then a molecule containing both modifications was generated. The individual modifications had little effect on in vitro GrB enzymatic activity (see, e.g., FIG. 4). […] There was little impact on the non-specific cell line (SKOV3).
(§5) Three expression constructs were developed and tested. (LL) encoded GrB-HL-HL-HL-HL-ZME(VL-VH), plasmid designation pSECTag-GrB-HL4-ZME; (E) encoded GrB HL HL HL HL T1 ZME(VL-VH), plasmid designation pSECTag-GrB-HL4-T1-ZME; and (J) (LL) encoded GrB (d1, A, N) HL HL HL HL ZME(VL-VH), plasmid designation pSECTag-GrB-HL4-ZME. The constructs were expressed and tested. […] Incorporation of d1 modified GrB into the construct further increased the specific cytotoxicity of the construct with no impact on non-specific cytotoxicity.
(§6) These constructs were expressed and tested.
(§7) These constructs were expressed and tested. […] Incorporation of the “26” molecule increased the toxicity to target and non-target cells alike.

[52] = system: SKOV3; test: Cytotoxic effects of GrB/ZME fusion constructs; type: cell-based; conditions: SKOV3, non-specific control
Excerpt: as §3, §4, §5, §6, §7

[53] = system: A375-M; test: Cytotoxic effects of GrB/ZME fusion constructs; type: cell-based; conditions: specifically targeted by ZME
Excerpt: as §3, §4, §5, §6, §7

[54] = system: Calu3; test: In vitro cytotoxic effects of GrB-based fusions, crystal violet; type: cell-based; conditions: Table 11, Calu3, 72 h exposure
[55] = system: NCI-N87; test: as above; type: cell-based; conditions: Table 11, NCI-N87, 72 h exposure
[56] = system: NCI-N87; test: Cytotoxic effects of GrB/4D5 fusion constructs with and without a translocation domain; type: cell-based; conditions: NCI-N87, Her2 Exp. High
Excerpt: (§8) Further GrB expression constructs were developed and tested.
as §6

[57] = system: Me-180; test: as above; type: cell-based; conditions: Me-180, Her2 Exp. none
Excerpt: as §8, §6

[58] = system: MDA-MB-453; test: as above; type: cell-based; conditions: MDA-MB-453, Her2 Exp. High
Excerpt: as §8, §6

[59] = system: Calu-3; test: as above; type: cell-based; conditions: Calu-3, Her2 Exp. High
Excerpt: as §8, §6

[60] = system: SKOV3; test: as above; type: cell-based; conditions: SKOV3, Her2 Exp. High
Excerpt: as §8, §6

[61] = system: SKBR3; test: as above; type: cell-based; conditions: SKBR3, Her2 Exp. High
Excerpt: as §8, §6

[62] = system: eB-1; test: In vitro cytotoxic effects of GrB-based fusions, crystal violet; type: cell-based, human; conditions: Table 11, eB-1, 72 h exposure
[63] = system: MDA MB453; test: as above; type: cell-based, human; conditions: Table 11, MDA MB453, 72 h exposure
[64] = system: MDA MB435; test: as above; type: cell-based; conditions: Table 11, MDA MB435, 72 h exposure
[65] = Enzymatic assay of GrB component, continuous colorimetric assay; type: biochemical; conditions: substrate BAADT, 25° C., native GrB as standard
Procedure: The enzymatic activity of the GrB component was determined in a continuous colorimetric assay using N-α-t-butoxycarbonyl-L-alanyl-L-alanyl-L-aspartyl-thiobenzylester (BAADT) as a specific substrate (Liu et al., 2003). Assays consisted of commercial human GrB (Enzyme Systems Products, Livermore, Calif.) or GrB-based fusion proteins in BAADT at 25° C. […] The specific activity of GrB-based fusion proteins was calculated using native GrB as the standard.

GrB: recombinant Granzyme B without targeting moiety, plasmid pSECTag-GrB, used as control
IC50 [1]: > 3200 nM | IC50 [2]: 3550 nM | IC50 [3]: > 3200 nM | IC50 [4]: > 3200 nM | IC50 [5]: > 1930 nM | IC50 [6]: 445 nM | IC50 [7]: 1410 nM | IC50 [8]: 1540 nM | IC50 [9]: 2340 nM | IC50 [10]: 259 nM | IC50 [11]: > 1920 nM | IC50 [12]: 2360 nM | IC50 [13]: 1220 nM | IC50 [14]: 526 nM | IC50 [15]: 602 nM | IC50 [16]: > 1920 nM | IC50 [17]: > 3200 nM | IC50 [18]: > 1920 nM | IC50 [19]: 1300 nM | IC50 [20]: > 1920 nM | IC50 [21]: > 3200 nM | IC50 [22]: > 3200 nM | IC50 [23]: > 3200 nM | IC50 [24]: > 1920 nM | IC50 [25]: > 1500 nM | IC50 [26]: 1040 nM | IC50 [27]: 1020 nM | IC50 [28]: > 700 nM | IC50 [29]: > 1920 nM | IC50 [30]: 1440 nM | IC50 [31]: > 1920 nM | IC50 [32]: 1910 nM | IC50 [33]: > 1920 nM | IC50 [34]: 2630 nM | IC50 [35]: > 1300 nM | IC50 [36]: > 1920 nM | IC50 [37]: > 1920 nM | IC50 [38]: 445 nM | IC50 [39]: 825 nM | IC50 [40]: > 1920 nM | IC50 [41]: > 1920 nM | IC50 [42]: 1300 nM | IC50 [43]: 447 nM | IC50 [44]: > 1920 nM | IC50 [45]: 3010 nM | IC50 [46]: > 700 nM | IC50 [47]: 660 nM | IC50 [48]: 800 nM | IC50 [49]: 841 nM | IC50 [50]: > 1920 nM | IC50 [51]: > 2000 nM | IC50 [52]: > 2000 nM | IC50 [53]: > 2000 nM | IC50 [54]: > 1500 nM | IC50 [55]: > 1500 nM | IC50 [56]: > 1000 nM | IC50 [57]: > 1000 nM | IC50 [58]: > 1000 nM | IC50 [59]: > 1000 nM | IC50 [60]: > 1000 nM | IC50 [61]: > 1000 nM | IC50 [62]: > 1500 nM | IC50 [63]: > 1500 nM | IC50 [64]: > 1500 nM

native GrB: commercial human GrB (Enzyme Systems Products) used as the standard
GrB enzymatic activity [65]: 1.19×10^5 U/μmoL

Reference: patent US11535838B2, “Serine protease molecules and therapies” (Research Development Foundation, priority 2012, dated 2022)
